Data as given in patent US12180143B1, “8-((4-hydroxy-3-methoxyphenyl)diazenyl)naphthalene-1,3-disulfonic acid as an antioxidant compound” (KING FAISAL UNIVERSITY, priority 2023, dated 2024).

Experiment: DPPH radical scavenging antioxidant test
Assay type: biochemical
Conditions: 517 nm; for Inhibition (radical scavenging inhibition): 0.2 mL DPPH (0.75 mM), compound 3 μM in ethanol, 30 min incubation in the dark
Procedure: The antioxidant properties of the 8-((4-hydroxy-3-methoxyphenyl)diazenyl) naphthalene-1,3-disulfonic acid were studied by adding 0.2 mL DPPH (0.75 mM)) to compound 8-((4-hydroxy-3-methoxyphenyl)diazenyl) naphthalene-1,3-disulfonic acid (III) (3 μM) in ethanol. After 30 min of incubation in the dark, the absorbance was read against a blank at 517 nm. Ascorbic acid (vitamin C) was used as standard antioxidants (positive control). A blank sample was prepared by 0.2 ml of DPPH in 3 mL ethanol. A negative control sample was run using ethanol instead of the sample. The radical scavenging inhibition was calculated using the following equation: […]

Compound	Inhibition (radical scavenging inhibition)	antioxidant potential to vanish the DPPH radical distinctive colors, compared to vitamin C (DPPH in vitro test, vitamin C as positive control)
O=C1O[C@H]([C@@H](O)CO)C(O)=C1O [vit c, Ascorbic acid, reference compound]	74%	
COc1cc(/N=N/c2cccc3cc(S(=O)(=O)O)cc(S(=O)(=O)O)c23)ccc1O [Product III, 8-((4-hydroxy-3-methoxyphenyl)diazenyl) naphthalene-1,3-disulfonic acid]	48%	high potential as an antioxidant compared to vitamin C
